Measurements reported in patent US20050239718A1, “Use of hederagenin 3-O-alpha-L-rhamnopyranosyl((1-2)-[betha-D-glucopyranosyl(1-4)]-alpha-L-arabinopyranoside or an extract from pulsatillae radix containing the same as a therapeutic agent for solid tumors” (priority 2002, published 2005).

Assays:
NCI-H23 cells = experiment: Antitumor activity on nude mice transplanted with NCI-H23 cells; format: in vivo, mouse; conditions: for Inhibition rate of tumor growth (%) on NCI-H23: 16th day after tumor cells transplantation
Protocol: Female nude mice of the age of 5 weeks weighing 16˜25 g obtained from Harlan Co. (USA) were used as experimental animals in this experiment. The mice were used after acclimation for 1 week in an aseptic animal room. The animal room maintained the temperature of 22±2° C., the humidity of 55±5%, and the light and darkness cycle of 12 hours, which was automatically controlled. Solid feed for experimental animals was radiosterilized, and drinking water was sterilized in an autoclave. The animals were supplied with feed and drinking water ad libitum. A human tumor cell line provided by National Cancer Institute (NCI), USA, and preserved in the Korean Research Institute of Bioscience and Biotechnology (KRIBB), Korea, was used. Lung tumor cells, NCI-H23 cells, among the human tumor cells, were transplanted to the nude mice. The tumor cells of 3×10^7 cells/ml were subcutaneously transplanted to the mice at a volume of 0.3 ml/20 g body weight. The samples were intraperitoneally injected to the mice every day for 13 days, that is, from 1 day to 14th day except 8th day after tumor cells transplantation. The size of tumor formed during the injection was measured in each animal, and any change in its body weight was also measured. On 16th day after tumor cells transplantation, the nude mice were sacrificed, and the tumor was separated and weighed. To the positive control group was intraperitoneally injected adiamycin of 0.5 mg/kg body weight on 1st, 5th, 9th, and 14th day.

LLC cells = experiment: Antitumor activity on BDF1 mice transplanted with LLC cells; format: in vivo, mouse; conditions: for Inhibition rate of tumor growth (%): i.p., WT 280, SPX1 70, SPX2 171, SPX3 30.5, SPX4 8.1, SB365 6.4, adriamycin 0.5 mg/kg
Protocol: The mouse species used in this experiment was BDF1, and healthy male mice with the body weight of […] were used. These animals were supplied with water and foods ad libitum at a place of controlled temperature in the range of 2324° C., and were bred with an antibiotic-free mouse feed. LLC cells were subcutaneously cultured in C57BL/6 mice for 14 days. A LLC cell-containing tissue was taken and thereto was added sterilized cold physiological saline water (5 ml/g tissue) to prepare a cell suspension. The cell suspension of 0.2 ml was subcutaneously transplanted to the groin region of BDF1 mouse.
From 24 hours after transplantation, the above mice were divided into several groupsconsisting of 5 mice. Then, samples, fractions WT and SPX fractions, and SB365, were dissolved in physiological saline, and were injected intraperitoneally at each concentration of 280 mg/kg (WT), 70 mg/kg SPX1), 171 mg/kg (SPX2), 30.5 mg/kg (SPX3), 8.1 mg/kg (SPX4), and 6.4 mg/kg (SB365). To the negative control group was injected only the physiological saline, and to the positive control group was injected adriamycin (0.5 mg/kg). The injection was scheduled from 24 hours after tumor transplantation to administer the samples successively once a day for 7 days, and stopped for one day, and then, was carried out for 6 more consecutive days.
In order to evaluate toxicity of SB365 on mice, experimental mice were weighed twice a week. Antitumor activity was calculated after measuring tumor volume of the control and test groups on 14th and 15th day after sample administration as follows: • Tumor volume (mm^3)=length (mm)×width^2 (mm^2)/2 • Inhibition rate of tumor growth (%)=(C−T)×100/C • (C: average tumor volume in the control group, T: average tumor volume in the test group)

KB cells = conditions: by inhibition of DNA polymerase; cited from earlier work
[1] = 14th day after transplantation of tumor cells
[2] = 15th day after transplantation of tumor cells

Row | SMILES | Inhibition rate of tumor growth (%) on NCI-H23 (NCI-H23 cells; 1.6 mg/kg i.p.) [%] | Inhibition rate of tumor growth (%) on NCI-H23 (NCI-H23 cells; 3.2 mg/kg i.p.) [%] | Inhibition rate of tumor growth (%) on NCI-H23 (NCI-H23 cells; 6.4 mg/kg i.p.) [%] | Antitumor activity (in words) (NCI-H23 cells; nude mice transplanted with NCI-H23 cells) | Inhibition rate of tumor growth (%) (LLC cells; [1]) | Inhibition rate of tumor growth (%) (LLC cells; [2]) | Antitumor activity (in words) (LLC cells; BDF1 mice transplanted with LLC cells) | Inhibition rate of tumor growth (LLC cells; day not stated) [%] | Cytotoxicity (in words) (KB cells) | Inhibition rate of tumor growth (%) on NCI-H23 (NCI-H23 cells; 0.5 mg/kg i.p. on 1st, 5th, 9th, 14th day) [%]
1 | CC1OC(OC2C(O[C@H]3CC[C@@]4(C)C(CC[C@]5(C)C4CC=C4C6CC(C)(C)CC[C@]6(C(=O)O)CC[C@]45C)[C@]3(C)CO)OCC(OC3OC(CO)C(O)C(O)C3O)C2O)C(O)C(O)C1O (stereo partly drawn) [SB365, hederagenin 3-O-α-L-rhamnopyranosyl(1→2)-[β-D-glucopyranosyl(1→4)]-α-L-arabinopyranoside] | 40.1 | 52.3 | 82.1 | higher antitumor activity | 82 | 79 | higher antitumor activity | 81 |  | 
2 | O=C1C=C[C@@H](COC2OC(CO)C(O)C(O)C2O)O1 (stereo partly drawn) [ranunculin, Ranunculin] |  |  |  |  |  |  |  |  | has cytotoxicity | 
3 | COc1cccc2c1C(=O)c1c(O)c3c(c(O)c1C2=O)C[C@@](O)(C(=O)CO)C[C@@H]3O[C@H]1C[C@H](N)[C@H](O)[C@H](C)O1 [Adriamycin, reference compound] |  |  |  |  | 60 | 64 |  |  |  | 61.5
